# Structures can show the parent of a compound that is named as a salt.
# What was measured:
# [1] = Aqueous solubility (stated in the description); assay type: physicochemical; conditions: water
# [2] = system: aerobic and some anaerobic Gram-positive and Gram-negative bacteria; test: In vitro antimicrobial spectrum (MIC90); assay type: cell-based; conditions: read-out: minimum inhibitory concentration which inhibits 90% of the microbial strains in a given species (MIC90)
# [3] = Linear calculated pharmacokinetic parameters following single dose IM injection; assay type: in vivo, human; conditions: for AUC(0-inf) / Cmax / Tmax: human, in vivo, im; for Mean AUC0-∞ / Mean Cmax / Mean Tmax: prodrug, 228 mg/mL, calculated on linear assumptions
# Excerpt: The AUC0-∞ and Cmax values increase or decrease proportionally with the dosage of ceftaroline fosamil. Thus, one skilled in the art with the benefit of this disclosure may readily determine pharmacokinetic parameters for any specific dosage of ceftaroline fosamil (or other prodrugs of ceftaroline) used in a particular dosage form of the invention. The pro-drug in the blood is converted rapidly to the active moiety ceftaroline.
# Linear calculated pharmacokinetic parameters for ceftaroline following single dose IM injection of ceftaroline fosamil using vials containing 668 mg ceftaroline fosamil (USAN) at 228 mg/mL, defined per Table 23 are shown in Table 26.
# Linear calculated pharmacokinetic parameters for ceftaroline fosamil (INN) following single dose IM injection of ceftaroline fosamil USAN (at concentration of ceftaroline fosamil (anhydrous, acetate free basis of 228 mg/mL, defined per Table 23) are shown in Table 27.
# [4] = Part A: single-dose IM injection and IV infusion pharmacokinetic study in healthy human subjects; assay type: in vivo; conditions: for AUC(0-inf): AUC0-∞; for half-life: T1/2; for Mean AUC0-∞ / Mean Cmax / Mean Tmax: prodrug
# Description: (§1) The pharmacokinetic parameters described herein include area under the plasma concentration-time curve (AUC0-t and AUC0-∞), maximum plasma concentration (Cmax), and time of maximum plasma concentration (Tmax). Terminal elimination half-life (T1/2) may also be provided. The time of maximum concentration, Tmax, is determined as the time corresponding to Cmax. Area under the plasma concentration-time curve up to the time corresponding to the last measurable concentration (AUC0-t) is calculated by numerical integration using the linear trapezoidal rule as follows:
# (§2) This was a two-part randomized, single and multiple-dose study to determine pharmacokinetics of ceftaroline fosamil and its the active moiety, ceftaroline, administered parenterally (both intramuscular injection and intravenous injection).
# (§3) Part A of the study was a single-dose open-label study. Part B of the study was a multiple-dose study.
# Twenty four subjects (six subjects per treatment group) were randomized to one of four treatment groups (A-D): The following doses were administered using vials containing 668 mg ceftaroline fosamil (USAN, molecular formula C22H21N8O8PS4.C2H4O2.H2O, molecular weight 762.75).
# (§4) The duration of the study for Treatment Groups E and F was 11 days (Days-1 through 10). Ceftaroline dosing solutions for IM injection were prepared using sterile water for injection.
# (§5) The pharmacokinetic parameters for ceftaroline fosamil and ceftaroline were determined using a standard assay. Blood for pharmacokinetic parameter analysis was collected from all subjects as follows: The first blood sample was collected at about 5 minutes (about 0.06 hours) after completion of the administration. Measurement was considered essentially zero prior to this point.
# (§6) Part A: 5, 15, and 30 minutes and 1, 2, 4, 6, 8, 12, 18, 24, 36 and 48 hours after injection. In addition, blood were be collected from subjects receiving IV infusion immediately prior to drug injection on day 8 and at 20, 40, 60 (immediately before the end of the study-drug infusion), 65 and 75 minutes, and 1.5, 2, 3, 4, 6, 8, 12, 24, 36 and 48 hours after the start of the drug infusion on Day 8. Part B: Drug injection on Days 1 and 5, at 5, 15, and 30 minutes and 1, 2, 4, 6, […] after the first injection on Day 1, immediately prior to (within 15 minutes) of injection of morning dose on Day 4, at 12 hours post Day 4 morning dose (before evening dose) and at 5, and 30 minutes and 1, 2, 4, 6, 8, 12, 24, 36 and 48 hours after the last (morning) injection on Day 5.
# [5] = Part B: multiple-dose IM injection pharmacokinetic study in healthy human subjects; assay type: in vivo
# Description: as §1, §2, §3
# Eighteen subjects were randomized to one of two treatment groups The IM injection was be administered to the alternating side of the gluteus in each subject.
# as §4, §5, §6
# [6] = human, in vivo, im, 600 mg, AUC0-t
# [7] = single dose IM ceftaroline fosamil (USAN) 223 mg (≡200 mg INN)
# [8] = single dose IM ceftaroline fosamil (USAN) 557 mg (≡500 mg INN)
# [9] = single dose IM ceftaroline fosamil (USAN) 891 mg (≡800 mg INN)
# [10] = single dose IM ceftaroline fosamil (USAN) 1337 mg (≡1200 mg INN)
# [11] = single dose IM ceftaroline fosamil (USAN) 2005 mg (≡1800 mg INN)
# [12] = prodrug in plasma, Treatment A: 400 mg (INN) IM, 228 mg/mL
# [13] = prodrug in plasma, Treatment B: 600 mg (INN) IM, 165 mg/mL
# [14] = prodrug in plasma, Treatment C: 600 mg (INN) IM, Day 1, 228 mg/mL
# [15] = prodrug in plasma, Treatment C: 600 mg (INN) IV infusion over 60 mins, Day 8
# [16] = prodrug in plasma, Treatment D: 1000 mg (INN) IM, 228 mg/mL
# [17] = single dose IM ceftaroline fosamil (USAN) 446 mg (≡400 mg INN), 228 mg/mL
# [18] = single dose IM ceftaroline fosamil (USAN) 668 mg (≡600 mg INN), 228 mg/mL
# [19] = single dose IM ceftaroline fosamil (USAN) 1114 mg (≡1000 mg INN), 228 mg/mL
# [20] = prodrug in plasma, Treatment E: 600 mg (INN) IM q12h, Day 5, 228 mg/mL
# [21] = prodrug in plasma, Treatment E: 600 mg (INN) IM, Day 1, 228 mg/mL
compound,measurement,setting,value
"CCO/N=C(\C(=O)N[C@@H]1C(=O)N2C(C(=O)[O-])=C(Sc3nc(-c4cc[n+](C)cc4)cs3)CS[C@H]12)c1nsc(N)n1 [Ceftaroline, ceftaroline]",solubility,[1],2000 to 3000 µg/mL
same,MIC90,[2],≤ 2000 µg/mL
same,AUC(0-inf),[3]; 223 mg,17800 ng·h/mL
same,Cmax,[3]; 223 mg,3490 ng/mL
same,Tmax,[3]; 223 mg,1.5 h
same,AUC(0-inf),[3]; 557 mg,43200 ng·h/mL
same,Cmax,[3]; 557 mg,7900 ng/mL
same,Tmax,[3]; 557 mg,2 h
same,AUC(0-inf),[3]; 891 mg,81800 ng·h/mL
same,Cmax,[3]; 891 mg,12600 ng/mL
same,Tmax,[3]; 891 mg,2 h
same,AUC(0-inf),[3]; 1337 mg,133000 ng·h/mL
same,Cmax,[3]; 1337 mg,18800 ng/mL
same,Tmax,[3]; 1337 mg,2 h
same,AUC(0-inf),[3]; 2005 mg,211000 ng·h/mL
same,Cmax,[3]; 2005 mg,28100 ng/mL
same,Tmax,[3]; 2005 mg,2 h
same,AUC greater at 165 mg/mL than at 228 mg/mL,"[4]; human, in vivo",~56%
same,Bioavailability (absolute),"[4]; human, in vivo",107 ± 7.1%
same,Cmax greater at 165 mg/mL than at 228 mg/mL,"[4]; human, in vivo",approximately 72%
same,bioavailability,"[4]; human, in vivo, Bioavailability (absolute)",~100%
same,Cmax,"[4]; human, in vivo, im, 400 mg",6971 ± 1616 ng/mL
same,Tmax,"[4]; human, in vivo, im, 400 mg",1.5 (1.0-2.0) h
same,AUC0-t,"[4]; human, in vivo, im, 400 mg, AUC0-t",35300 ± 6160 ng·h/mL
same,AUC(0-inf),"[4]; human, in vivo, im, 400 mg",35600 ± 6130 ng·h/mL
same,half-life,"[4]; human, in vivo, im, 400 mg",2.36 ± 0.22 h
same,AUC0-t,"[4]; human, in vivo, im, 600 mg",73439 ± 12080 ng·h/mL
same,AUC0-∞,"[4]; human, in vivo, im, 600 mg",73826 ± 12031 ng·h/mL
same,T1/2,"[4]; human, in vivo, im, 600 mg",2.27 ± 0.16 h
same,Tmax,"[4]; human, in vivo, im, 600 mg",2.0 (1.2-2.0) h
same,AUC0-t,[4]; [6],47500 ± 4010 ng·h/mL
same,AUC(0-inf),"[4]; human, in vivo, im, 600 mg",48100 ± 3850 ng·h/mL
same,half-life,"[4]; human, in vivo, im, 600 mg",2.55 ± 0.49 h
same,Tmax,"[4]; human, in vivo, im, 600 mg, Tmax",2 h
same,Cmax,"[4]; human, in vivo, im, 1000 mg",15997 ± 3739 ng/mL
same,AUC0-t,"[4]; human, in vivo, im, 1000 mg, AUC0-t",110000 ± 31300 ng·h/mL
same,AUC(0-inf),"[4]; human, in vivo, im, 1000 mg",110000 ± 31300 ng·h/mL
same,half-life,"[4]; human, in vivo, im, 1000 mg",2.68 ± 0.31 h
same,Tmax,"[4]; human, in vivo, im, 1000 mg, Tmax",2 h
same,Tmax,"[4]; human, in vivo, im, Mean Tmax",2 h
same,Tmax,"[4]; human, in vivo, im, Tmax following IM injection",1 to 2 h
same,Tmax,"[4]; human, in vivo, iv",1.0 (1.0-1.0) h
same,half-life,"[4]; human, in vivo, iv",2.13 ± 0.31 h
same,Tmax,"[4]; human, in vivo, iv, Tmax following IV infusion",~1 h
same,AUC0-t,"[5]; human, in vivo, im, 600 mg",65407 ± 11807 ng·h/mL
same,T1/2,"[5]; human, in vivo, im, 600 mg",2.51 ± 0.45 h
same,AUC0-t,[5]; [6],55300 ± 11100 ng·h/mL
same,half-life,"[5]; human, in vivo, im, 600 mg, T1/2",2.54 ± 0.63 h
"CCO/N=C(\C(=O)N[C@@H]1C(=O)N2C(C(=O)[O-])=C(Sc3nc(-c4cc[n+](C)cc4)cs3)CS[C@H]12)c1nsc(NP(=O)(O)O)n1 [Ceftaroline Fosamil (INN), 4-[2-[[(6R,7R)-2-carboxy-7-[[2(Z)-ethoxyimino-[5-(phosphonoamino)-1,2,4-thiadiazol-3-yl]acetyl]amino]-8-oxo-5-thia-1-azabicyclo[4.2.0]oct-2-en-3-yl]thio-4-thiazolyl]-1-methyl-, inner salt]",Mean AUC0-∞,[3]; [7],1162 ng·h/mL
same,Mean Cmax,[3]; [7],484 ng/mL
same,Mean Tmax,[3]; [7],0.3 h
same,Mean AUC0-∞,[3]; [8],2905 ng·h/mL
same,Mean Cmax,[3]; [8],1210 ng/mL
same,Mean Tmax,[3]; [8],0.5 h
same,Mean AUC0-∞,[3]; [9],4648 ng·h/mL
same,Mean Cmax,[3]; [9],1936 ng/mL
same,Mean Tmax,[3]; [9],0.5 h
same,Mean AUC0-∞,[3]; [10],6972 ng·h/mL
same,Mean Cmax,[3]; [10],2904 ng/mL
same,Mean Tmax,[3]; [10],0.5 h
same,Mean AUC0-∞,[3]; [11],10458 ng·h/mL
same,Mean Cmax,[3]; [11],4356 ng/mL
same,Mean Tmax,[3]; [11],0.5 h
same,more bioavailable than an IV solution of the same strength,[4]; 600 mg (INN) IM solution at 165 mg/mL vs IV,over 50%
same,AUC0-t,[4]; [12],1950 ± 401 ng·h/mL
same,AUC0-∞,[4]; [12],2144 ± 421 ng·h/mL
same,Cmax,[4]; [12],1113 ± 418 ng/mL
same,T1/2,[4]; [12],1.21 ± 0.49 h
same,Tmax,[4]; [12],0.29 h
same,AUC0-t,[4]; [13],4846 ± 975 ng·h/mL
same,AUC0-∞,[4]; [13],5118 ± 985 ng·h/mL
same,Cmax,[4]; [13],2722 ± 557 ng/mL
same,T1/2,[4]; [13],1.06 ± 0.33 h
same,Tmax,[4]; [13],0.75 h
same,AUC0-t,[4]; [14],3060 ± 475 ng·h/mL
same,AUC0-∞,[4]; [14],3242 ± 486 ng·h/mL
same,Cmax,[4]; [14],1492 ± 275 ng/mL
same,T1/2,[4]; [14],1.57 ± 0.41 h
same,Tmax,[4]; [14],0.50 h
same,AUC0-t,[4]; [15],2734 ± 340 ng·h/mL
same,AUC0-∞,[4]; [15],2744 ± 344 ng·h/mL
same,Cmax,[4]; [15],3549 ± 465 ng/mL
same,T1/2,[4]; [15],0.07 ± 0.03 h
same,Tmax,[4]; [15],0.67 h
same,AUC0-t,[4]; [16],5791 ± 2795 ng·h/mL
same,AUC0-∞,[4]; [16],6229 ± 2829 ng·h/mL
same,Cmax,[4]; [16],2239 ± 657 ng/mL
same,T1/2,[4]; [16],1.87 ± 0.90 h
same,Tmax,[4]; [16],0.38 h
same,Mean AUC0-∞,[4]; [17],2144 ng·h/mL
same,Mean Cmax,[4]; [17],1113 ng/mL
same,Mean Tmax,[4]; [17],0.29 h
same,Mean AUC0-∞,[4]; [18],3242 ng·h/mL
same,Mean Cmax,[4]; [18],1492 ng/mL
same,Mean Tmax,[4]; [18],0.5 h
same,Mean AUC0-∞,[4]; [19],6229 ng·h/mL
same,Mean Cmax,[4]; [19],2238 ng/mL
same,Mean Tmax,[4]; [19],0.5 h
same,AUC0-t,[5]; [20],4067 ± 782 ng·h/mL
same,Cmax,[5]; [20],2223 ± 497 ng/mL
same,T1/2,[5]; [20],1.11 ± 0.35 h
same,Tmax,[5]; [20],0.50 h
same,AUC0-t,[5]; [21],3096 ± 850 ng·h/mL
same,Cmax,[5]; [21],1575 ± 507 ng/mL
same,T1/2,[5]; [21],1.17 ± 0.52 h
same,Tmax,[5]; [21],0.50 h
